Laboratory results from patent publication US5854002A (Rhone Poulenc, Inc., priority 1996, dated 1998).
Read-outs that look alike come from different tables or passages of the source. Each block holds one compound with its values, some of them ahead of it.

Key:
[1] = biological target: T1, Drosophila Rdl (Drosophila melanogaster, UniProt P25123); assay: [3H] muscimol radioligand binding assay, membranes of High Five cells infected with vBP8-Rdl
T1 construct: excised the full-length cDNA encoding Rdl; made in house; host or cells: High Five (Trichoplusia ni) cells, baculovirus vBP8-Rdl
T1 sequence (P25123 45-606): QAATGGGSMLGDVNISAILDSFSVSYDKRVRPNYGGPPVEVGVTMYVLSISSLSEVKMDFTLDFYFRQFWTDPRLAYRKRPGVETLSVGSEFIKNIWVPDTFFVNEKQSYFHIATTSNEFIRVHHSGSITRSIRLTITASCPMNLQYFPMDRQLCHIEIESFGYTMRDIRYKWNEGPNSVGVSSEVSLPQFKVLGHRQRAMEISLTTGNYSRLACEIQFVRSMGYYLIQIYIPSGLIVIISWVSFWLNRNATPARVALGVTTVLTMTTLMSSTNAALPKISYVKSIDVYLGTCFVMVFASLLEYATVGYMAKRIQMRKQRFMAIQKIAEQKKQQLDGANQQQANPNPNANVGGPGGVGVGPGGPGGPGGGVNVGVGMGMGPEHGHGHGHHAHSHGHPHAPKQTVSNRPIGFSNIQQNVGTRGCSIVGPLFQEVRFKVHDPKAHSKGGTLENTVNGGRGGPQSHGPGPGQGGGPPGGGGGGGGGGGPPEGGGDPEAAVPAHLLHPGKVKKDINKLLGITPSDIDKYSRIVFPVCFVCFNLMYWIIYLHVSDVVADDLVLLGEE
Procedure: (§1) High Five™ cells (derived from the cabbage loper, Trichoplusia ni, Invitrogen Corp.) were infected with vBP8-Rdl, vBP8-LCCH3, or vBP8-Grd, either singly or in various combinations. Cells were harvested at 3 days post-infection in tubes of approximately 6×10^7 cells per tube, the cells were pelleted by centrifugation, the supernatants discarded, and the pellets immediately stored at -80° C. This amount of tissue is sufficient for one 96-well microtiter plate. Membranes were prepared by first thawing and then resuspending the cell pellet in 25 mL of 10 mM phosphate buffer pH 7.4. The cells were gently homogenized with five strokes in a glass/Teflon homogenizer and the membranes pelleted by centrifugation at 120,000 g for 30 minutes. The membrane pellet was resuspended in 25 mL of 10 mM phosphate buffer pH 7.4, re-pelleted as above, and the pellet finally resuspended in 3 mL of buffer. The protein concentration was determined by the Bradford method (Bradford (1976) Anal. Biochem. 79:248) and then adjusted to 625 μg of protein per mL of 10 mM PBS, pH 7.4.
(§2) The reactions were incubated for 90 minutes at 4° C., and then terminated by filtration through Whatman GF/B glass fiber filters. Filters were washed with two 5 mL aliquots of cold buffer, and the radioactivity remaining on the filters was determined by liquid scintillation. Multiple assays were performed to test numerous compounds.

[2] = biological target: T2, Drosophila Grd and LCCH3 (Drosophila melanogaster, UniProt Q08832+Q24352); assay: [3H] muscimol radioligand binding assay, membranes of High Five cells co-infected with vBP8-Grd/vBP8-LCCH3
T2 construct: made in house; host or cells: High Five (Trichoplusia ni) cells, co-infected with vBP8-Grd and vBP8-LCCH3
T2 sequence (Q24352 59-686): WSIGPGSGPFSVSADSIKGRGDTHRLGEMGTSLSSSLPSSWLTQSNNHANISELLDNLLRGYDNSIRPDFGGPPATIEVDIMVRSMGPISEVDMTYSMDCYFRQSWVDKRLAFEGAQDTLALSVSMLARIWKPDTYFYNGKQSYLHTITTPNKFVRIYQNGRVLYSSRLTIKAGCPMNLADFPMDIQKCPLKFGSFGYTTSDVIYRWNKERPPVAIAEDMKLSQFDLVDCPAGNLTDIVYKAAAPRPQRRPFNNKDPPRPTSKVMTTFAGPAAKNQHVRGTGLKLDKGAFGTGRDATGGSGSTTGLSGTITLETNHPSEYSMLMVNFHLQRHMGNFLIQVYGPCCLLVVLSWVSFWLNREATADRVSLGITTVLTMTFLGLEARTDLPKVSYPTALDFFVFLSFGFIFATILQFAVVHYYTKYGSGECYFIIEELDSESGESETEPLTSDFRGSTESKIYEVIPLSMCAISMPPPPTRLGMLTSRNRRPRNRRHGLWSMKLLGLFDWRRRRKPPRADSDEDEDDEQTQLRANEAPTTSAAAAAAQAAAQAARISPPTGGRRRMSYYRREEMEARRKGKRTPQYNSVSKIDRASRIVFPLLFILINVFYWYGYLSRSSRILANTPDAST
T2 sequence (Q08832 21-496): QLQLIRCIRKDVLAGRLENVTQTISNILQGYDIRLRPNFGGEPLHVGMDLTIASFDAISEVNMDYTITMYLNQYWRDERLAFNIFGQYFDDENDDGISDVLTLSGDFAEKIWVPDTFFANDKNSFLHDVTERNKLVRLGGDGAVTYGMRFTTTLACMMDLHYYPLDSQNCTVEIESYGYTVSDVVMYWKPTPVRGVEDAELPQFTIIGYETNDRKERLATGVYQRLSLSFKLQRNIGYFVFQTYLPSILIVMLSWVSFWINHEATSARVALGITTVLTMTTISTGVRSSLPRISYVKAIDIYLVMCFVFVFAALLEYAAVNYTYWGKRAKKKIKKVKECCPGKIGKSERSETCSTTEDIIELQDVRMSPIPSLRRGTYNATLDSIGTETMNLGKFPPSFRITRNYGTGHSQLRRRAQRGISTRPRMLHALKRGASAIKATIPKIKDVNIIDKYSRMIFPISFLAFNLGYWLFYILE
Procedure: as §1
The radioligand binding assays were composed of 200 μL membrane preparation (containing 125 μg protein), 100 μL of [^3 H] muscimol (to give a final concentration of 5 nM), 20 μL of unlabeled test compound, buffer or unlabeled muscimol, and 680 μL of 10 mM PBS, pH 7.4. […] The reactions were incubated for 90 minutes at 4° C., and then terminated by filtration through Whatman GF/B glass fiber filters. Filters were washed with two 5 mL aliquots of cold buffer, and the radioactivity remaining on the filters was determined by liquid scintillation. Multiple assays were performed to test numerous compounds.

[3] = biological target: Rat brain; assay: [3H] muscimol binding, rat brain (previous assays of the inventors); details: previous assays by the inventors; for IC50: half-maximal displacement of [3H] muscimol
From the text: Data from fly heads and rat brains were obtained as described in Table 2.

[4] = test system: Housefly heads; details: from Lunt et al. (1985), cited from earlier work; for IC50: half-maximal displacement of [3H] muscimol, read-out: IC50, Fly Heads
[5] = biological target: T3, Drosophila Rdl, Grd and LCCH3 (Drosophila melanogaster, UniProt P25123+Q08832+Q24352); assay: [3H] muscimol radioligand binding assay, membranes of High Five cells infected with vBP8-Grd/vBP8-LCCH3/vBP8-Rdl
T3 construct: excised the full-length cDNA encoding Rdl; made in house; host or cells: High Five (Trichoplusia ni) cells, co-infected with vBP8-Grd, vBP8-LCCH3 and vBP8-Rdl
T3 sequence (P25123 45-606): T1 sequence (P25123 45-606)
T3 sequence (Q24352 59-686): T2 sequence (Q24352 59-686)
T3 sequence (Q08832 21-496): T2 sequence (Q08832 21-496)
Procedure: as §1, §2

[6] = biological target: T4, Drosophila Grd (Drosophila melanogaster, UniProt Q24352); assay: [3H] muscimol radioligand binding assay, membranes of High Five cells infected with vBP8-Grd; details: High Five cell membranes
T4 construct: made in house; host or cells: High Five (Trichoplusia ni) cells, baculovirus vBP8-Grd
T4 sequence (Q24352 59-686): T2 sequence (Q24352 59-686)
Procedure: as §1, with “The membrane pellet was resuspended in 25 mL of 10 mM phosphate buffer pH 7.4, re-pelleted as above, and the pellet finally resuspended in 3 mL of buffer.” left out
(§3) The radioligand binding assays were composed of 200 μL membrane preparation (containing 125 μg protein), 100 μL of [^3 H] muscimol (to give a final concentration of 5 nM), 20 μL of unlabeled test compound, buffer or unlabeled muscimol, and 680 μL of 10 mM PBS, pH 7.4. […] Filters were washed with two 5 mL aliquots of cold buffer, and the radioactivity remaining on the filters was determined by liquid scintillation. […]

[7] = biological target: T5, Drosophila LCCH3 (Drosophila melanogaster, UniProt Q08832); assay: [3H] muscimol radioligand binding assay, membranes of High Five cells infected with vBP8-LCCH3; details: High Five cell membranes
T5 construct: made in house; host or cells: High Five (Trichoplusia ni) cells, baculovirus vBP8-LCCH3
T5 sequence (Q08832 21-496): T2 sequence (Q08832 21-496)
Procedure: as §1, with “The membrane pellet was resuspended in 25 mL of 10 mM phosphate buffer pH 7.4, re-pelleted as above, and the pellet finally resuspended in 3 mL of buffer.” left out
as §3

[8] = biological target: T6, Human α1 and rat β2 (UniProt P14867+P63138); assay: [3H] muscimol radioligand binding assay, positive control receptor expressed in insect cells; details: [3H] muscimol 5 nM, insect cell membranes
T6 construct: made in house; host or cells: insect cells, baculoviruses vEV-humα1 and vEV-ratβ2

[9] = biological target: T2, Drosophila Grd and LCCH3; assay: [3H] muscimol radioligand binding assay, membranes of High Five cells co-infected with vBP8-Grd/vBP8-LCCH3; remark: listed apart in the source
[10] = half-maximal displacement of [3H] muscimol, read-out: IC50, Rdl
[11] = half-maximal displacement of [3H] muscimol, read-out: IC50, Grd/LCCH3
[12] = [3H] muscimol 5 nM, High Five cell membranes, non-specific = 10 μM GABA
[13] = [3H] muscimol saturation binding, High Five cell membranes
[14] = [3H] muscimol 5 nM, non-specific = 10 μM GABA
[15] = [3H] muscimol saturation binding

T6 sequence (P14867 28-456): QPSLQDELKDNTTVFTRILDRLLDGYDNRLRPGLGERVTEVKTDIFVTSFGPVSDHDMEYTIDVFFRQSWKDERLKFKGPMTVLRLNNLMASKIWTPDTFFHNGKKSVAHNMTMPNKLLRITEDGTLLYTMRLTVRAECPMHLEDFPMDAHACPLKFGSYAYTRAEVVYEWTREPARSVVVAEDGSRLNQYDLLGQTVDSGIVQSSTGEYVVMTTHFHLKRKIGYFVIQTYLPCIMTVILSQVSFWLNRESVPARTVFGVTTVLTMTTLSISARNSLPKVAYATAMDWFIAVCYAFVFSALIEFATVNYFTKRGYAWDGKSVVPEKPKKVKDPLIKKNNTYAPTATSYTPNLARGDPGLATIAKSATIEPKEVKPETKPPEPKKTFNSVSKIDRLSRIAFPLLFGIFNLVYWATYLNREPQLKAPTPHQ
T6 sequence (P63138 25-474 limits assumed): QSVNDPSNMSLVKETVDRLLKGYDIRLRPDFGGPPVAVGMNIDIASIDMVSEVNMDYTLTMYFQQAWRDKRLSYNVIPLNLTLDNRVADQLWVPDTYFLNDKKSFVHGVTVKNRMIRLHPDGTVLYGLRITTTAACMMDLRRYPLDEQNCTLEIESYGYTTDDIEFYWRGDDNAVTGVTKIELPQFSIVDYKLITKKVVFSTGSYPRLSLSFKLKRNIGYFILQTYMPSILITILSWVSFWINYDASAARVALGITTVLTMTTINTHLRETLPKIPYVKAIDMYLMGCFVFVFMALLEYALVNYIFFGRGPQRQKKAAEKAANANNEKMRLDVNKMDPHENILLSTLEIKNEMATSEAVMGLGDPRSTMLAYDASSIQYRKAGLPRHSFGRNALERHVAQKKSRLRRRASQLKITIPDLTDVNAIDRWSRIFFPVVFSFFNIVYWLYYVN

Compound: O=C(O)C1=CCNCC1 [Isoguavacine]
- IC50 [1, 10]: 0.26 µM
- IC50 [2, 11]: 0.19 µM
- IC50 [3]: 0.289 µM
- IC50 [4]: 0.1 µM

- IC50 [1, 10]: 1.7 µM
- IC50 [2, 11]: 2.68 µM
- IC50 [3]: 1.43 µM
Compound: O=C(O)C1CCNCC1 [Isonipecotic acid]

Compound: NCc1cc(=O)[nH]o1 [Muscimol]
- IC50 [1, 10]: 0.012 µM
- IC50 [2, 11]: 0.015 µM
- IC50 ([5]; half-maximal displacement of [3H] muscimol): 0.023 µM
- IC50 [3]: 0.043 µM
- IC50 [4]: 0.03 µM

- IC50 [1, 10]: > 1000 µM
- IC50 [2, 11]: > 1000 µM
Compound: O=S(=O)(O)C1CCNCC1 [Piperidine-4-sulfonate]

Compound: CP(=O)(O)CCCN [SKF-97541]
- IC50 [1]: > 1000 µM
- IC50 [2]: > 1000 µM
- IC50 [3]: > 1000 µM

Compound: NCc1cc(O)no1 [[^3 H] muscimol]
- Bmax ([1]; High Five cell membranes): 0.11 pmol [3H] muscimol bound per m
- % Specific Binding [1, 12]: 55%
- Kd [1, 13]: 0.012 µM
- % Specific Binding [6, 14]: 10%
- Kd [6, 15]: > 10 µM
- % Specific Binding [7, 14]: 10%
- Kd [7, 15]: > 10 µM
- % Specific Binding [2, 12]: 85%
- specific binding of [3H]muscimol ([2]; cells 3 days after co-infection with vBP8-Grd and vBP8-LCCH3): High levels of specific binding
- Bmax ([5]; High Five cell membranes): 0.64 pmol [3H] muscimol bound per m
- % Specific Binding [5, 12]: 60%
- Kd [5, 13]: 0.038 µM
- % Specific Binding [8]: 80%
- Kd ([3]; rat brain): 0.028 µM
- maximum number of binding sites (Bmax) relative to vBP8-Rdl-infected cells ([9]; Grd/LCCH3 co-infected versus Rdl-infected cells): 15 fold
- Bmax ([9]; High Five cell membranes): 1.85 pmol [3H] muscimol bound per m
- Kd [9, 13]: 0.012 µM
- Kd ([4]; housefly heads): 0.04 µM

- IC50 [1, 10]: 2.91 µM
- IC50 [2, 11]: 1.62 µM
- IC50 [3]: > 1000 µM
Compound: NC/C=C\C(=O)O [cis-4-amino-crotonic acid]
